Values of other authors, collected in patent US20260232690A1, “Treatment of the Chronic Effects of Brain Injury Using Rho Kinase Inhibitors” (WOOLSEY PHARMACEUTICALS, INC., priority 2023, published 2026).

Test system: salt-loaded hypertensive stroke-prone rats

Cl.O=S(=O)(c1cccc2cnccc12)N1CCCNCC1 [Fasudil, 5-(1,4-Diazepane-1-sulfonyl) isoquinoline]
nephrosclerosis: attenuate nephrosclerosis
survival: improve survival
